≈ marks a conversion by molar mass, not a printed value.
Tests used:
Format in all cases: in vivo
[1] = test system: large crabgrass (Digitaria sanguinalis); assay: Pre-emergence application, herbicidal effect on large crabgrass (Table 1); design: key: 0: not damaged; 5: completely killed; settings: 20 days after application, score 0-5
Outline: (§1)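 Compounds, formulated as water-diluted wettable powder, were applied to the soil surface after sowing and covering the seeds in pots of about 10 cm. Effects were rated on a 0 (no damage) to 5 (complete kill) scale after 20 days of greenhouse growth.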

[2] = test system: common lambsquarter (Chenopodium album); assay: Pre-emergence application, herbicidal effect on common lambsquarter (Table 1); design: key: 0: not damaged; 5: completely killed; settings: 20 days after application, score 0-5
Outline: as §1

[3] = test system: radish; assay: Pre-emergence application, herbicidal effect on radish (Table 1); design: key: 0: not damaged; 5: completely killed; settings: 20 days after application, score 0-5
Outline: as §1

[4] = test system: barnyard grass (Echinochloa crus-galli); assay: Pre-emergence application, herbicidal effect on barnyard grass (Table 1); design: key: 0: not damaged; 5: completely killed; settings: 20 days after application, score 0-5
Outline: as §1

[5] = test system: rice; assay: Water application, phytotoxicity on rice (Table 2); design: key: 0: no effect; 1: very slightly affected; 2: slightly affected; 3: moderately affected; 4: considerably affected; 5: completely killed; settings: 25 days, score 0-5
Outline: (§2)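 Ratings on a 0–5 scale taken 25 days post-treatment for rice injury, barnyard grass, and naturally emerging monochoria, false pimpernel and toothcup. Compounds as wettable powder went onto waterlogged paddy soil holding rice seedlings transplanted at 3 leaves and barnyard grass seed.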

[6] = test system: broad-leaved weeds, e.g., monochoria, false pimpernel and toothcup; assay: Water application, herbicidal effect on broad-leaved weeds (Table 2); design: key: 0: not damaged; 5: completely killed; settings: 25 days, score 0-5
Outline: as §2

[7] = test system: common purslane (Portulaca oleracea); assay: Pre-emergence application, herbicidal effect on common purslane (Table 1); design: key: 0: not damaged; 5: completely killed; settings: 20 days after application, score 0-5
Outline: as §1

[8] = test system: barnyard grass (Echinochloa crus-galli); assay: Water application, herbicidal effect on barnyard grass (Table 2); design: key: 0: no effect; 1: very slightly affected; 2: slightly affected; 3: moderately affected; 4: considerably affected; 5: completely killed; settings: 10 g/a, 25 days, score 0-5
From the text: (§3) Wagner pots of 14 cm. in diameter, which had been packed with 1.5 kg. of paddy field soil, were brought into the state of paddy fields. To the pots were transplanted rice seedlings at the 3-leave stage. Further, seeds of barnyard grass (Echinochloa crus-galli) were sowed in the pots and required amounts of test compounds were applied to the soil under water lodged condition. 25 days after application, the degrees of herbicidal activity and phytotoxity were investigated on above-mentioned plants which had been transplanted and sowed, and on broad-leaved weeds, e.g., monochoria (Monochoria viaginalis Presl.), false pimpernel (Linderna pyxidaria) and toothcup (Rotala indica Koehue), which had been spontaneously germinated. The test compounds were used in the form of wettable powder. The herbicidal effects and the phytotoxity were evaluated as follows by the numerals ranging from 0 to 5.

[9] = test system: redroot pigweed (Amaranthus retroflexus); assay: Pre-emergence application, herbicidal effect on redroot pigweed (Table 1); design: key: 0: not damaged; 5: completely killed; settings: 20 days after application, score 0-5
Outline: as §1

[10] = test system: barnyard grass (Echinochloa crus-galli); assay: Water application, herbicidal effect on barnyard grass (Table 2); design: key: 0: not damaged; 5: completely killed; settings: 25 days, score 0-5
Outline: as §2

[11] = test system: rice stem borer (Chilo suppressalis); assay: Lethal effect on rice stem borer (Table 6); settings: 50 % emulsifiable concentrate, 1000 fold dilute solution, 4 days after application
From the text: Eggs just before hatch of the rice stem borer were applied in a ratio of 100/pot near the root of rice plants grown up into the tillering stage in an […] Wagner's pot. After eggs were hatched and the larvae entered into stems of rice plants, an 1000 fold dilute solution of each 50 % emulsifiable concentrates of the present compounds was applied by means of a turn table.

[12] = test system: nematode; assay: Effect on nematode (Table 7); design: tested at 500 ppm; settings: 500 p.p.m., 24 hours
Procedure: 0.5 ml. of a nematode-containing aqueous solution separated from food according to Baermann's method was placed in a test tube with ground stopper containing 0.5 ml. of an aqueous dilute solution of each emulsifiable concentrates of the present compounds. The concentration of the active ingredient in the mixture was adjusted to 500 p.p.m. After 24 hours, the death and alive were observed microscopically to calculate the mortality.

[13] = test system: carmine mite (Tetranychus telavius); assay: Lethal effect on carmine mite, leaf dipping (Table 3); settings: foliar, 48 h
Procedure: A large number of carmine mite adult were made parasitic on leaves of potted kidney beans at a 2-leaves stage which had elapsed 10 days after sowing. The leaves of kidney bean on which carmine mites had been made parasitic were dipped for 1 minute in each aqueous solution of the present compounds of wettable powder type. Water was given to the leaves not to kill them, and after 48 hours the death and alive were observed microscopically to calculate the mortality. Values of LC50 were obtained from the mortality.

[14] = test system: broad-leaved weeds, e.g., monochoria, false pimpernel and toothcup; assay: Water application, herbicidal effect on broad-leaved weeds (Table 2); design: key: 0: no effect; 1: very slightly affected; 2: slightly affected; 3: moderately affected; 4: considerably affected; 5: completely killed; settings: 10 g/a, 25 days, score 0-5
From the text: as §3

SMILES | Herbicidal effect, large crabgrass ([1]; 10 g./a.) | Herbicidal effect, large crabgrass ([1]; 20 g./a.) | Herbicidal effect, large crabgrass ([1]; 40 g./a.) | Herbicidal effect, common lambsquarter ([2]; 10 g./a.) | Herbicidal effect, common lambsquarter ([2]; 20 g./a.) | Herbicidal effect, common lambsquarter ([2]; 40 g./a.) | Herbicidal effect, radish ([3]; 10 g./a.) | Herbicidal effect, radish ([3]; 20 g./a.) | Herbicidal effect, radish ([3]; 40 g./a.) | Herbicidal effect, barnyard grass ([4]; 10 g./a.) | Herbicidal effect, barnyard grass ([4]; 20 g./a.) | Herbicidal effect, barnyard grass ([4]; 40 g./a.) | Phytotoxicity on rice ([5]; 10 g/a) | Phytotoxicity on rice ([5]; 20 g/a) | Phytotoxicity on rice ([5]; 40 g/a) | Herbicidal effects, broad-leaved weeds ([6]; 20 g/a) | Herbicidal effects, broad-leaved weeds ([6]; 40 g/a) | Herbicidal effect, common purslane ([7]; 10 g./a.) | Herbicidal effect, common purslane ([7]; 20 g./a.) | Herbicidal effect, common purslane ([7]; 40 g./a.) | further results
CCOP(=O)(SCCc1ccccc1)SCC(=O)N1CCCCC1C (stereo not shown) [Compound 63] | 4 | 5 | 5 | 4 | 4 | 5 | 0 | 0 | 0 | 5 | 5 | 5 | 0 | 0 | 0 | 5 | 5 | 4 | 5 | 5 | Herbicidal effects, broad-leaved weeds ([6]; 10 g/a): 5; Herbicidal effects, barnyard grass [8]: 4; Herbicidal effect, redroot pigweed ([9]; 10 g./a.): 4; Herbicidal effect, redroot pigweed ([9]; 20 g./a.): 5; Herbicidal effect, redroot pigweed ([9]; 40 g./a.): 5; Herbicidal effects, barnyard grass ([10]; 20 g/a): 5; Herbicidal effects, barnyard grass ([10]; 40 g/a): 5
C=CCSP(=O)(OCCC)SCC(=O)N1CCC(C)CC1 (stereo not shown) [Compound 18] | 5 | 5 | 5 | 4 | 5 | 5 | 0 | 0 | 0 | 4 | 5 | 5 | 0 | 0 | 0 | 5 | 5 | 4 | 4 | 5 | Mortality [11]: 76.4%; Herbicidal effects, broad-leaved weeds ([6]; 10 g/a): 5; Herbicidal effect, redroot pigweed ([9]; 10 g./a.): 4; Herbicidal effect, redroot pigweed ([9]; 20 g./a.): 4; Herbicidal effect, redroot pigweed ([9]; 40 g./a.): 5; Herbicidal effects, barnyard grass ([10]; 10 g/a): 5; Herbicidal effects, barnyard grass ([10]; 20 g/a): 5; Herbicidal effects, barnyard grass ([10]; 40 g/a): 5
C=CCSP(=O)(OCCC)SCC(=O)N1CCCCC1CC (stereo not shown) [Compound 91] | 5 | 5 | 5 | 3 | 3 | 4 | 0 | 0 | 0 | 4 | 5 | 5 | 0 | 0 | 0 | 5 | 5 | 3 | 4 | 4 | Herbicidal effects, broad-leaved weeds ([6]; 10 g/a): 5; Herbicidal effects, barnyard grass [8]: 4; Herbicidal effect, redroot pigweed ([9]; 10 g./a.): 3; Herbicidal effect, redroot pigweed ([9]; 20 g./a.): 3; Herbicidal effect, redroot pigweed ([9]; 40 g./a.): 4; Herbicidal effects, barnyard grass ([10]; 20 g/a): 5; Herbicidal effects, barnyard grass ([10]; 40 g/a): 5
CCCCSP(=O)(OCC)SCC(=O)N1CCCCC1C (stereo not shown) [Compound 4] | 5 | 5 | 5 | 4 | 4 | 5 | 0 | 0 | 0 | 4 | 5 | 5 | 0 | 0 | 0 | 5 | 5 | 4 | 4 | 5 | Mortality [12]: 100%; LC50 [13]: 11.4 µg/mL (≈ 32.2 µM); Mortality [11]: 97.6%; Herbicidal effects, broad-leaved weeds [14]: 4; Herbicidal effect, redroot pigweed ([9]; 10 g./a.): 4; Herbicidal effect, redroot pigweed ([9]; 20 g./a.): 4; Herbicidal effect, redroot pigweed ([9]; 40 g./a.): 4; Herbicidal effects, barnyard grass ([10]; 10 g/a): 5; Herbicidal effects, barnyard grass ([10]; 20 g/a): 5; Herbicidal effects, barnyard grass ([10]; 40 g/a): 5
C=C(Cl)CSP(=O)(OCC)SCC(=O)N1CCCCC1C (stereo not shown) [Compound 9] | 5 | 5 | 5 | 4 | 5 | 5 | 0 | 0 | 0 | 5 | 5 | 5 | 0 | 0 | 0 | 5 | 5 | 5 | 5 | 5 | Mortality [12]: 100%; Mortality [11]: 100%; Herbicidal effects, broad-leaved weeds ([6]; 10 g/a): 5; Herbicidal effect, redroot pigweed ([9]; 10 g./a.): 4; Herbicidal effect, redroot pigweed ([9]; 20 g./a.): 5; Herbicidal effect, redroot pigweed ([9]; 40 g./a.): 5; Herbicidal effects, barnyard grass ([10]; 10 g/a): 5; Herbicidal effects, barnyard grass ([10]; 20 g/a): 5; Herbicidal effects, barnyard grass ([10]; 40 g/a): 5
CCCCSP(=O)(OCC)SCC(=O)N1CCC(C)CC1 (stereo not shown) [Compound 24] | 4 | 5 | 5 | 3 | 4 | 4 | 0 | 0 | 0 | 4 | 5 | 5 | 0 | 0 | 0 | 5 | 5 | 4 | 4 | 4 | Mortality [11]: 83.0%; Herbicidal effects, broad-leaved weeds [14]: 4; Herbicidal effect, redroot pigweed ([9]; 10 g./a.): 3; Herbicidal effect, redroot pigweed ([9]; 20 g./a.): 4; Herbicidal effect, redroot pigweed ([9]; 40 g./a.): 4; Herbicidal effects, barnyard grass ([10]; 10 g/a): 5; Herbicidal effects, barnyard grass ([10]; 20 g/a): 5; Herbicidal effects, barnyard grass ([10]; 40 g/a): 5

Reference: patent US4015974A, “Amido phosphorothiolates” (priority 1972, dated 1977)
